This note sets out measurements from patent US20260207569A1, “LPA1 ANTAGONISTS FOR TREATING INTERSTITIAL LUNG DISEASE” (Bristol-Myers Squibb Company, priority 2022, published 2026).

What all share (type): in vivo, human
A short description of series [1]: Phase 1 Part C MAD, blood pressure, healthy Japanese participants. As to the method:
The study was performed in 3 parts in 112 healthy male and female participants, including 24 Japanese participants. Female participants were to be not of childbearing potential. The present study was designed to evaluate the safety and tolerability, PK, and exploratory PD of an oral suspension of Compound A. Parts A and B (Cohort B1 only) enrolled healthy participants and was conducted at a site in The Netherlands and Part B (Cohort B2 to B5) enrolled healthy non-Japanese participants and was conducted at a site in the United Kingdom (UK). Part C enrolled healthy Japanese participants and was conducted at the same site in the UK.
Part C was a MAD study in 3 sequential dose escalation cohorts (30 mg BID, 60 mg BID, and 90 mg BID) of 8 healthy Japanese participants (6 active+2 placebo) each. Eligible participants in Cohorts C1 to C3 received study drug (Compound A or placebo) administered orally for 14 days.
Physical examinations, vital sign measurements (including orthostasis testing in Cohort A6, Cohort B3 to B5, and C1 to C3 at selected time points), 12-lead electrocardiogram (ECG), and clinical laboratory evaluations were performed at selected times throughout the study. In addition, Holter monitoring was performed for the first 24 hours post dose on Day 1 in Part A (not in FE/pH cohort), and also for the first 24 hours post dose on Day 1 and Day 14 in Parts B and C. Participants were closely monitored for adverse events (AEs). Blood samples were collected for up to 14 days (follow-up visit) after (last) study drug administration for PK analysis. In addition, blood and urine were collected for exploratory biomarker assessments and for biobanking of samples for potential analyses. Urine was collected for potential PK analysis for up to 96 hours after a single dose of Compound A or placebo was administered in the SAD part, and for up to 24 hours after the first (morning) dose of study drug on Day 1 and for up to 24 hours after the last (morning) dose of study drug on Day 14 in the MAD parts.

Another series deals with participants with IPF. As to the kind of experiment: Phase 2 IPF cohort efficacy: rate of change in ppFVC / FVC to Week 26. As to the method:
(§1) A total of 278 participants with IPF were randomized and 276 participants were treated as of […] analyses data cut-off (4 Aug. 2022). Male and female participants ≥40 years of age with IPF and percent predicted forced vital capacity (ppFVC) ≥40% and percent predicted DLCO (ppDLCO) ≥25%; diagnosed within 7 years of screening; having a centrally-read chest HRCT obtained at screening that was consistent with UIP or probable UIP, or having a lung biopsy consistent with UIP, were eligible to enter the study. The mean baseline ppFVC for all subjects was 76.5%. In the primary IPF cohort, participants were randomized (1:1:1) to receive 30 mg or 60 mg Compound A or placebo (PBO) twice daily for 26 weeks. Participants were stratified by standard of care (SoC) IPF therapy (pirfenidone versus nintedanib versus none) and region (Japan versus Rest of World) at randomization.
The primary objective of the study was to determine the rate of change in ppFVC from baseline to Week 26. The primary objective was evaluated with a two estimand framework to handle the intercurrent event of dose reduction to 10 mg BID or matching PBO when pre-specified low BP criteria is met. The primary estimand is adopted to estimate treatment effect when dose reduction is implemented. The supplementary estimand is adopted to estimate the effect of treatment without dose reduction.
Analysis Strategy: The primary estimand was to evaluate the efficacy of Compound A at 30 mg or 60 mg twice daily, compared to PBO in IPF participants who met the enrollment criteria, with or without use of SoC. The rate of decline in ppFVC (%) from baseline to Week 26 was compared using the difference between each dose and PBO as a population level summary regardless of dose reduction or treatment discontinuation for any reason (treatment policy strategy).
Analysis Strategy: The supplementary estimand for the primary objective is to evaluate the efficacy of Compound A at 30 mg or 60 mg twice daily without dose reduction, compared to the PBO in IPF subjects who met the enrollment criteria, with or without use of SoC. The rate of decline in ppFVC (%) from baseline to Week 26 has been compared using the difference between each dose and PBO as a population level summary regardless of treatment discontinuation for any reason (treatment policy strategy). In the event of dose reduction, data collected after dose reduction will not be considered relevant to the treatment effect of interest and therefore, will be treated as missing (while-on-treatment strategy).

Series [2] in a line: Phase 2 IPF cohort safety: adverse events, low blood pressure criteria, dose reductions. The procedure: as §1
Patient experiences any of the following, confirmed by retest within 15 minutes: • Seated systolic blood pressure <85 mmHg • Seated diastolic blood pressure <55 mmHg • Orthostatic hypotension
Patient experiences symptoms that, in the investigator's opinion, could be associated with a reduction in blood pressure and also experiences at least one of the following, confirmed by retest within 15 minutes: • Seated systolic blood pressure <100 mmHg or seated diastolic blood pressure <60 mmHg • Decrease of seated systolic blood pressure of ≥20 mmHg from the previous visit or decrease of seated diastolic blood pressure of ≥10 mmHg from the previous visit • Orthostatic hypotension • Orthostatic tachycardia

Setting [3] is: Active Total (30 mg and 60 mg groups).

Each structure is given as a SMILES string. “Also recorded” adds a separate entry of the source.

Consider `CCCN(C)C(=O)OCc1c(-c2ccc(O[C@H]3CCC[C@H](C(=O)O)C3)c(C)n2)nnn1C` [Compound A, (1S,3S)-3-((2-methyl-6-(1-methyl-5-(((methyl(propyl)carbamoyl)-oxy)methyl)-1H-1,2,3-triazol-4-yl)pyridin-3-yl)oxy)cyclohexane-1-carboxylic acid], for which, in series [1] (Japanese MAD 30 mg BID (C1)), the “Maximum of mean (±SD) reduction in SBP from baseline” value is on record as 15.0 ± 6.84 mmHg and the “Time of maximum mean SBP reduction” value was 1-4 Day-h. In series [1] (Japanese MAD 90 mg BID (C2)), the “Time of maximum mean DBP reduction” value was 1-6 Day-h and the “Time of maximum mean SBP reduction” value was 1-6 Day-h. Besides, the “Reductions in mean BP” value in series [1] (Japanese MAD cohorts) is recorded as “no clear Compound A dose-dependent BP reduction trend”. Moreover, the “Treatment differences in rates of change in ppFVC with and without background antifibrotic” value in the series on participants with IPF (IPF cohort) is given as “consistent between both groups”. In addition, in the series with participants with IPF (IPF, 30 mg BID, overall population), the “Efficacy vs PBO” value is “did not demonstrate efficacy compared to PBO”. For the same compound, the “Response by background SoC subgroup vs PBO” value in the series on participants with IPF (IPF, 60 mg BID, SoC (nintedanib or pirfenidone) and no SoC) was “favorable responses on the primary endpoint; also recorded: favorable efficacy; also recorded: favorable impact on FVC compared with PBO when used alone or on background therapy with nintedanib or pirfenidone”. The “Treatment response (rate of decline of ppFVC and FVC) vs PBO” value in the series with participants with IPF (IPF, 60 mg BID, Week 26, overall population) was “demonstrated favorable treatment responses versus PBO”. Besides, the “Slope difference (SE) in rate of decline in FVC, 60 mg - PBO” value in the series with participants with IPF (IPF, 60 mg BID, baseline to Week 26, supplementary estimand, Overall) was 61.4 (29.35) mL. Besides, the “Relative treatment benefit (ppFVC decline) compared to PBO” value (shortened to “Relative treatment benefit”) in the series on participants with IPF (IPF, 60 mg BID, primary estimand, not on background SoC) worked out at 113%. The “Relative treatment benefit” value in the series on participants with IPF (IPF, 60 mg BID, primary estimand, on background SoC) came out at 39%. Besides, in the series on participants with IPF (IPF, 60 mg BID, supplementary estimand, not on background SoC), the “Relative treatment benefit” value was 123%. Besides, the “Relative treatment benefit” value in the series with participants with IPF (IPF, 60 mg BID, supplementary estimand, on background SoC) is 44%. Further, in series [2] (30 mg BID), the “Dose reductions to 10 mg BID due to protocol-defined low BP criteria, %” value is on record as 7.7%. For the same compound, in series [2] (60 mg BID), the “Dose reductions to 10 mg BID due to protocol-defined low BP criteria, %” value came to 6.5% and the “Risk of orthostatic intolerance, orthostatic hypotension or low BP criteria vs PBO” value was “lowest frequencies of orthostatic intolerance, orthostatic hypotension, or pre-specified symptomatic or asymptomatic low BP criteria; also recorded: not associated with any increased risk of orthostatic intolerance, orthostatic hypotension, orthostatic tachycardia, or symptomatic or asymptomatic low BP”. In series [2] (setting [3]), the “Subjects discontinuing study treatment due to a TEAE, %” value was “(8.2) %”; the “Subjects who died due to a TEAE, %” value is on record as “(3.8) %”; the “Subjects who died, %” value is “(4.9) %”; the “Subjects with at least one AESI, %” value is “(14.7) %”. Also, in series [2] (setting [3]), the “Subjects with at least one TEAE related to the study treatment, %” value is “(26.1) %”; the “Subjects with at least one TEAE, %” value was “(75.0) %”; the “Subjects with at least one TESAE, %” value is reported as “(10.9) %”.
